Some results are limits rather than exact numbers.

One data set concerns the target CYP2C9 (Homo sapiens, UniProt P11712). Description: Inhibition of CYP2C9 (unknown origin) at 10 uM relative to control. It is filed as ADME.
Data set [1] deals with 11-beta-hydroxysteroid dehydrogenase 1 (Mus musculus, UniProt P50172). Description: Inhibition of N-terminal 6-His-tagged mouse full length 11beta-HSD1 assessed as conversion of cortisone to cortisol after 25 mins by HTRF assay.
The nature of data set [2]: Plasma clearance in rat at 1 to 3 mg/kg. It is filed as ADME, organism-based. Also on record: dose 1-3 mg/kg.

Sequence of 11-beta-hydroxysteroid dehydrogenase 1 (P50172 whole entry): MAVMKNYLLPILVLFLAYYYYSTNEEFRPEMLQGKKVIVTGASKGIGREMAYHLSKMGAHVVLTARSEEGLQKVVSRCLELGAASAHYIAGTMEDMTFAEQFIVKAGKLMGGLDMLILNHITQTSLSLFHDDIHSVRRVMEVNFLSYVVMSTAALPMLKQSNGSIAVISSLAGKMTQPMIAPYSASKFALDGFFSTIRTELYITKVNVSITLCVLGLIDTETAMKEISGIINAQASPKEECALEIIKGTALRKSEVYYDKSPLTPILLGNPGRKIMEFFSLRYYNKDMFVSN
Sequence of CYP2C9 (P11712 whole entry): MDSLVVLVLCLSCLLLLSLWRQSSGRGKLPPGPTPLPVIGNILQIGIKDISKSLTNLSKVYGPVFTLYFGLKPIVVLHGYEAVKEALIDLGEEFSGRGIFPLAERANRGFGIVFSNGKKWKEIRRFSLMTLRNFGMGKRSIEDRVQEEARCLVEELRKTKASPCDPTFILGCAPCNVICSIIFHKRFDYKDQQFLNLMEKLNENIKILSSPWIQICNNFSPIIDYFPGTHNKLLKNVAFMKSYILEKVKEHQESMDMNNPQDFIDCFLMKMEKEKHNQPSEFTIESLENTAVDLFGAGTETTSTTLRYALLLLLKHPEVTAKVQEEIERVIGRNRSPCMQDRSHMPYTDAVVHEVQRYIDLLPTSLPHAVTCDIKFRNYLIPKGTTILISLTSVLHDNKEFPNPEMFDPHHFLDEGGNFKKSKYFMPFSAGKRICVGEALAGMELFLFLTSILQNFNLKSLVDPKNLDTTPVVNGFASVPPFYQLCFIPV

`CSc1nc(N2C[C@@H]3[C@H](C2)[C@H]3C(=O)O)ccc1C(=O)NC12CC3CC(CC(C3)C1)C2` showed an inhibition at 10 µM against CYP2C9 of under 25%. The IC50 in data set [1] was determined as 0.31 µM. The clearance in data set [2] stood at 0.36 L/h/kg.

These data come from ChEMBL document CHEMBL3217743, “Reduction of acyl glucuronidation in a series of acidic 11-hydroxysteroid dehydrogenase type 1 (11-HSD1) inhibitors: the discovery of AZD6925” (Medchemcomm, 2012).
